We go through one compound from patent US4652581A, “Tetrahydroindole derivative as medicament for cerebral apoplexy” (Grelan Pharmaceutical Co., Ltd., priority 1983, dated 1987).

Data set [1] has as its system hemorrhagic infarction (rat cerebral infarction model). Description: Inhibition of hemorrhagic infarction in cerebral infarction model, ISI injection (Test Example 1A). Type of data set: in vivo, Sprague Dowley male rats. To be noted: intraperitoneal. The method, then: (§1) (A) A cerebral infarction model was constructed by the following procedure. The bilateral common carotid arteries of Sprague Dowley male rats (body weights 300 to 350 g) in which one of the vertebral arteries was occluded by electrocauterization in accordance with the method of W. Pulsinelli et al (Stroke 10, 267, 1979) were uniformly occluded and made repatent, using clamps, at an interval of 1 hour for the first cycle and thereafter at 30-minute intervals for a total of 4 cycles.
After the final establishment of repatency in this test model and on the second day and onwards, 1 ml/100 g body weight of Glyceol ® Injection [a preparation containing 10 weight % of glycerol, the trademark of Chugai Pharmaceutical Co., Ltd., Japan] was intraperitoneally administered twice daily. The test drug ISI was dissolved in Glyceol ® Injection to a concentration of 0.08 weight % and administered in the same manner as Glyceol ® Injection.
In a disease model such as the one used in this experiment, death of animals occurs in many cases as an infarction leads to cerebral edema which compresses the brain stem. Therefore, for the purpose of preventing death due to this cause and ensuring a smooth performance of the experiment, the animals were treated with Glyceol ® Injection which has a relieving effect on cerebral edema.
The isolated brains were fixed in 10% formalin. […]

Data set [2] has the same test system. The data set is described as follows: Inhibition of hemorrhagic infarction in cerebral infarction model, ISI orally administered (Test Example 1B). The data set is classed as in vivo, Sprague Dowley male rats. To be noted: oral, twice daily. As for the experimental part:
as §1
The isolated brains were fixed in 10% formalin. For the assessment of hemorrhagic infarction, paraffin-embedded specimens prepared from three different sections passing through the mid-point between the anterior portion of the frontal lobe and the optic chiasm, the optic chiasm and the posterior portion of the mamillary body were used after H.E. stain.
(B) In the system using the above-mentioned cerebral infarction model, 0.25 ml/100 g body weight of suspension of the test drug ISI in 5% sodium alginate was orally administrated (dose of ISI: 30 mg/kg). To control animals, 0.25 ml/100 g body weight of 5% sodium alginate was orally administered. The administration schedule was twice daily for both groups.
The brains submitted to the study were subjected to the same treatment as above, and assessments were made on paraffin-embedded specimens.

Data set [3] relates to cerebral apoplexy (stroke-prone spontaneously hypertensive rats). The data set is described as follows: Effect against cerebral apoplexy in NaCl-loaded stroke-prone spontaneously hypertensive rats (Test Example 2). Type of data set: in vivo. From the text:
Stroke-prone spontaneously hypertensive rats [K. Okamoto et al., Circulation Res. suppl. 34 & 35, 143 (1974)]of 10 weeks aged were fed, in conventional manner, with a 1 weight % aqueous solution of sodium chloride as drinking water [H. Ikeda et al., Europ. J. Pharmacol. 53, 173 (1979)]being employed.
Animals were subjected to periodical observation, three times a day, until the symptom of cerebral apoplexy was manifested in all the animals of the control group. The difference between the control group and the test group in the ranking of the symtoms of cerebral apoplexy manifested was subjected to rank sum test.
In the test group, each of the animals was orally treated every day with ISI dissolved in 1% gum-arabica solution so that the concentration may become 0.06 weight % at a dose of 0.5 ml/100 g body weight twice a day, starting with the sodium chloride loading. In the control group, each of the animals was treated with 1% gum-arabica solution at a dose of 0.5 ml/100 g body weight in a manner similar to that in the test group.
The animals in which the symptom of apoplexy was manifested, after being anesthetized, was treated with intravenous injection of 1% Evans Blue (dosage: 1 ml/kg). After sacrifice by bloodletting, hemorrhage and extravascular extravasation of the dye in the brain and the spinal cord was observed.
With paralysis of the limbs, stereotyped behaviour, an extreme loss of
those animals were counted as those suffering from C.A.: Excitement,
Hyperirritability, Depression, Epileptic symptom, Hemiplegia, Sudden

The nature of data set [4]: Acute toxicity (LD50 in mice). To be noted: mouse, in vivo.

Like-named read-outs stand apart in the source and are kept apart here.

Broadly, the LD50 is the dose at which mortality reaches 50%. As to `CC(C)N1CC(O)C2=CC(=NNC(N)=O)C(=O)C=C21` (centres unmarked) [ISI, 1-isopropyl-3-hydroxy-5-semicarbazono-6-oxo-2,3,5,6-tetrahydroindole], the “Number of cases of hemorrhagic infarction” value in data set [1] (0.08% ISI in Glyceol injection, 1 ml/100 g, twice daily, up to 7 days, control (Glyceol injection) 6/20) is 1/19; in data set [2] (30 mg/kg in 5% sodium alginate, control (sodium alginate) 18/43) it was 9/41. Further, in data set [1] (ISI in Glyceol injection vs control group), the “inhibitory effect on hemorrhagic infarction (significance versus control)” value is “inhibitory effect on hemorrhagic infarction was obtained in the ISI group at the significance level of 5%”. Moreover, the “inhibitory effect on cerebral infarction (significance versus control)” value in data set [2] (30 mg/kg, vs control group) is on record as “inhibitory effect on cerebral infarction was obtained in the ISI group at the significance level of 5%”. Moreover, the “Number of animals suffering from C.A., Total” value in data set [3] (ISI 3.0 mg/kg, oral twice a day, total, days 20-42 after NaCl loading, control 10/10) is recorded as 5/10. Besides, the “Number of animals suffering from C.A.” value in data set [3] (ISI 3.0 mg/kg, 20 days after NaCl loading, control 0) is 1; in data set [3] (ISI 3.0 mg/kg, 21 days after NaCl loading, control 1) it was 0; in data set [3] (ISI 3.0 mg/kg, 23 days after NaCl loading, control 1), 0; in data set [3] (ISI 3.0 mg/kg, 26 days after NaCl loading, control 1), 0; in data set [3] (ISI 3.0 mg/kg, 32 days after NaCl loading, control 1), 0; in data set [3] (ISI 3.0 mg/kg, 33 days after NaCl loading, control 1) it was 1. The “Number of animals suffering from C.A.” value turned out to be 0 in data set [3] (ISI 3.0 mg/kg, 34 days after NaCl loading, control 1); 2 in data set [3] (ISI 3.0 mg/kg, 37 days after NaCl loading, control 0); 0 in data set [3] (ISI 3.0 mg/kg, 39 days after NaCl loading, control 1); 0 in data set [3] (ISI 3.0 mg/kg, 40 days after NaCl loading, control 1); 1 in data set [3] (ISI 3.0 mg/kg, 41 days after NaCl loading, control 0); 0 in data set [3] (ISI 3.0 mg/kg, 42 days after NaCl loading, control 2). Further, in data set [3] (oral ISI twice a day, Mann-Whitrey's U-test), the “effect of ISI against cerebral apoplexy (significance versus control)” value is reported as 5% significant difference. Also, the LD50 in data set [4] (intravenous, read-out: Acute toxicity LD50, intravenous) was 350 mg/kg; in data set [4] (oral, read-out: Acute toxicity LD50, oral), at least 10000 mg/kg.
